Experimental data as given in patent US11485708B2, “Compounds for treatment of PD-L1 diseases” (CHEMOCENTRYX, INC., priority 2019, dated 2022).

biological target: human PD-L1 / Human PD-1 (Homo sapiens (Human), UniProt Q9NZQ7); assay: Enzyme-Linked Immunosorbent Assay (ELISA), PD-1/PD-L1 binding; settings: plates coated with human PD-L1, biotinylated human PD-1 added
Experimental: 96 Well plates were coated with 1 μg/mL of human PD-L1 (obtained from R&D) in PBS overnight at 4′° C. The wells were then blocked with 2% BSA in PBS (W/V) with 0.05% TWEEN-20 for 1 hour at 37′° C. The plates were washed 3 times with PBS/0.05% TWEEN-20 and the compounds were serial diluted (1:5) in dilution medium and added to the ELISA plates. Human PD-1 and biotin 0.3 μg/mL (ACRO Biosystems) were added and incubated for 1 hour at 37° C. then washed 3 times with PBS/0.05% TWEEN-20. A second block was performed with 2% BSA in PBS (WNV)/0.05% TWEEN-20 for 10 min at 37° C. and the plates were washed 3 times with PBS/0.05% TWEEN-20. Streptavidin-HIRP was added for 1 hour at 37° C. then the plates were washed 3 times with PBS/0.05% TWEEN-20. TMB substrate was added and reacted for 20 min at 37° C. A stop solution (2 N aqueous H2SO4) was added. The absorbance was read at 450 nm using a micro-plate spectrophotometer.

Chain of human PD-L1 / Human PD-1 (Q9NZQ7 19-239): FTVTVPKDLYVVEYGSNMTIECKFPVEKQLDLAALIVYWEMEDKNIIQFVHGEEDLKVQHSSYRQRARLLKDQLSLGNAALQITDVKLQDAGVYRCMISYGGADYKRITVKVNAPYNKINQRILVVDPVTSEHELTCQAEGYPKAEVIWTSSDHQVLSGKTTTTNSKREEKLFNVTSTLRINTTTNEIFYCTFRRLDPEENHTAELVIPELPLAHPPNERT

Question: Which IC50 does the source give for `COc1cc(-c2cccc(-c3cccc(-c4cc(F)c(CN)c(OC)c4)c3C)c2C)ccc1CC(=O)O` [Compd 1.001] here?
Answer: 1000 to 10000 nM

Question: Which IC50 does the source give for `COc1cc(-c2cccc(-c3cccc(NC4CCNCC4)c3C)c2C)cc(F)c1CN` [Compd 1.003, N-(4″-(aminomethyl)-3″-fluoro-5″-methoxy-2,2′-dimethyl-[1,1′:3′,1″-terphenyl]-3-yl)piperidin-4-amine] here?
Answer: < 1000 nM

Question: For `COc1cc(-c2cccc(-c3cccc(-c4cc(F)c(CN)c(OC)c4)c3C)c2C)ccc1C(=O)O` [Compd 1.005], which IC50 is on record?
Answer: 1000 to 10000 nM

Question: `COc1cc(-c2cccc(-c3cccc(-n4ccnc4)c3C)c2C)cc(F)c1CN1CC(C(=O)O)C1` [Compd 1.006] was tested. Which IC50 did it give?
Answer: 1000 to 10000 nM

Question: `COc1cc(-c2cccc(-c3ccc4c(c3)OC(C3=NCCN3)CO4)c2C)cc(F)c1CN` (centres unmarked) [Compd 1.009] was tested. Which IC50 did it give?
Answer: 1000 to 10000 nM

Question: With `COc1cc(-c2cccc(-c3cccc(OC4CCCNC4)c3C)c2C)cc(F)c1CN` (centres unmarked) [Compd 1.014] as the molecule, how does the IC50 read?
Answer: 1000 to 10000 nM

Question: Which IC50 does the source give for `COC(=O)C1=Cc2cc(-c3cccc(-c4cc(F)c(CN)c(OC)c4)c3C)ccc2OC1` [Compd 1.016, Methyl 6-(4′-(aminomethyl)-3′-fluoro-5′-methoxy-2-methyl-[1,1′-biphenyl]-3-yl)-2H-chromene-3-carboxylate] here?
Answer: < 1000 nM

Question: For `COc1cc(-c2cccc(-c3ccc4c(c3C)CNCC4)c2C)cc(F)c1CNCCO` [Compd 1.020], which IC50 is on record?
Answer: 1000 to 10000 nM

Question: For `COc1cc(-c2cccc(-c3cc(F)c(CN)c(OC)c3)c2C)ccc1F` [Compd 1.021], which IC50 is on record?
Answer: 1000 to 10000 nM

Question: How did the IC50 turn out when `COc1cc(-c2cccc(-c3cccc4c3CCNC4)c2C)cc(F)c1CN` [Compd 1.022] was run?
Answer: 1000 to 10000 nM

Question: For `COc1cc(-c2cccc(-c3cccc(CCN)c3C)c2C)cc(F)c1CN` [Compd 1.023], which IC50 is on record?
Answer: 1000 to 10000 nM

Question: `COc1ccc(-c2cccc(-c3cc(F)c(CN)c(OC)c3)c2C)cc1F` [Compd 1.025] was tested. Which IC50 did it give?
Answer: 1000 to 10000 nM

Question: Which IC50 does the source give for `COc1ccc(-c2cccc(-c3cc(F)c(CN)c(OC)c3)c2C)c(F)c1` [Compd 1.030] here?
Answer: 1000 to 10000 nM

Question: How did the IC50 turn out when `COc1cc(-c2cccc(-c3cccc(-c4cc(F)c(CNCCO)c(OC)c4)c3C)c2C)cc(F)c1CN` [Compd 1.035] was run?
Answer: < 1000 nM

Question: Which IC50 does the source give for `COc1cc(-c2cccc(-c3cccc(-c4cc(F)c(CN)c(OC)c4)c3C)c2C)ccc1CN` [Compd 1.036] here?
Answer: < 1000 nM

Question: `COc1cc(-c2cccc(-c3cccc(-c4ccc(CN)c(F)c4)c3C)c2C)cc(F)c1CN` [Compd 1.037] was tested. Which IC50 did it give?
Answer: < 1000 nM

Question: Which IC50 does the source give for `COc1cc(-c2cccc(-c3cccc(-c4cc(F)c(CCN)c(OC)c4)c3C)c2C)cc(F)c1CN` [Compd 1.039] here?
Answer: < 1000 nM

Question: For `COc1cc(-c2cccc(-c3cccc(-c4ccc5c(c4)CCNC5)c3C)c2C)cc(F)c1CNCCO` [Compd 1.040, 2-(((3-fluoro-5-methoxy-2′,2″-dimethyl-3″-(1,2,3,4-tetrahydroisoquinolin-6-yl)-[1,1′:3′,1″-terphenyl]-4-yl)methyl)amino)ethan-1-ol], which IC50 is on record?
Answer: < 1000 nM

Question: Which IC50 does the source give for `COc1cc(-c2cccc(-c3cccc(-c4cc(F)c(CNCCS(=O)(=O)O)c(OC)c4)c3C)c2C)cc(F)c1CNCCS(=O)(=O)O` [Compd 1.041, 2,2′-(((3,3′″-difluoro-5,5′″-dimethoxy-2′,2″-dimethyl-[1,1′:3′,1″:3″,1′″-quaterphenyl]-4,4′″-diyl)bis(methylene))bis(azanediyl))bis(ethane-1-sulfonic Acid)] here?
Answer: < 1000 nM

Question: `Cc1c(-c2ccc3c(c2)CCNC3)cccc1-c1cccc(-c2ccc3c(c2)CCNC3)c1C` [Compd 1.042] was tested. Which IC50 did it give?
Answer: < 1000 nM

Question: With `COc1cc(-c2cccc(-c3cccc(-c4cc(F)c(CN5CCC(O)CC5)c(OC)c4)c3C)c2C)cc(F)c1CN1CCC(O)CC1` [Compd 1.043, 1,1′-((3,3′″-difluoro-5,5′″-dimethoxy-2′,2″-dimethyl-[1,1′:3′,1″:3″,1′″-quaterphenyl]-4,4′″-diyl)bis(methylene))bis(piperidin-4-ol)] as the molecule, how does the IC50 read?
Answer: < 1000 nM

Question: How did the IC50 turn out when `COc1cc(-c2cccc(-c3cccc(-c4cc(F)c(CCN)c(OC)c4)c3C)c2C)cc(F)c1CCN` [Compd 1.045] was run?
Answer: < 1000 nM

Question: `COc1cc(-c2cccc(-c3cccc(-c4cc(F)c(CN[C@@H]5CCC[C@@H]5O)c(OC)c4)c3C)c2C)cc(F)c1CN[C@@H]1CCC[C@@H]1O` [Compd 1.046] was tested. Which IC50 did it give?
Answer: < 1000 nM

Question: For `COc1cc(-c2cccc(-c3cccc(-c4cc(F)c(CN(C)C[C@@H]5CCC(=O)N5)c(OC)c4)c3C)c2C)cc(F)c1CN(C)C[C@@H]1CCC(=O)N1` [Compd 1.047], which IC50 is on record?
Answer: < 1000 nM

Question: With `COc1cc(-c2cccc(-c3cccc(-c4cc(F)c(CNC(C)C)c(OC)c4)c3C)c2C)cc(F)c1CNC(C)C` [Compd 1.048] as the molecule, how does the IC50 read?
Answer: < 1000 nM

Question: For `COc1cc(-c2cccc(-c3cccc(-c4cc(F)c(CNCCCCO)c(OC)c4)c3C)c2C)cc(F)c1CNCCCCO` [Compd 1.049], which IC50 is on record?
Answer: < 1000 nM

Question: Which IC50 does the source give for `COc1cc(-c2cccc(-c3cccc(-c4cc(F)c(CN(C)C)c(OC)c4)c3C)c2C)cc(F)c1CNCCO` [Compd 1.050, 2-(((4′″-((dimethylamino)methyl)-3,3′″-difluoro-5,5′″-dimethoxy-2′,2″-dimethyl-[1,1′:3′,1″:3″,1′″-quaterphenyl]-4-yl)methyl)amino)ethan-1-ol] here?
Answer: < 1000 nM

Question: How did the IC50 turn out when `COc1cc(-c2cccc(-c3cccc(-c4cc(F)c(CNCCO)c(OC)c4)c3C)c2C)cc(F)c1CNCCO` [Compd 1.051, 2,2′-(((3,3′″-difluoro-5,5′″-dimethoxy-2′,2″-dimethyl-[1,1′:3′,1″:3″,1′″-quaterphenyl]-4,4′″-diyl)bis(methylene))bis(azanediyl))bis(ethan-1-ol)] was run?
Answer: < 1000 nM

Question: Which IC50 does the source give for `CNCc1c(F)cc(-c2cccc(-c3cccc(-c4cc(F)c(CNC)c(OC)c4)c3C)c2C)cc1OC` [Compd 1.053] here?
Answer: < 1000 nM

Question: Which IC50 does the source give for `COc1cc(-c2cccc(-c3cccc(-c4cc(F)c(CNCCCCC(=O)O)c(OC)c4)c3C)c2C)cc(F)c1CNCCCCC(=O)O` [Compd 1.054] here?
Answer: < 1000 nM

Question: For `COc1cc(-c2cccc(-c3cccc(-c4cc(F)c(CNCCC(=O)O)c(OC)c4)c3C)c2C)cc(F)c1CNCCC(=O)O` [Compd 1.055], which IC50 is on record?
Answer: < 1000 nM

Question: `COc1cc(-c2cccc(-c3cccc(-c4cc(F)c(CNCCCO)c(OC)c4)c3C)c2C)cc(F)c1CNCCCO` [Compd 1.056] was tested. Which IC50 did it give?
Answer: < 1000 nM

Question: With `COC(=O)CCCN(C)Cc1c(F)cc(-c2cccc(-c3cccc(-c4cc(F)c(CN(C)CCCC(=O)OC)c(OC)c4)c3C)c2C)cc1OC` [Compd 1.057] as the molecule, how does the IC50 read?
Answer: < 1000 nM

Question: How did the IC50 turn out when `COc1cc(-c2cccc(-c3cccc(-c4cc(F)c(CN(C)CCCC(=O)O)c(OC)c4)c3C)c2C)cc(F)c1CN(C)CCCC(=O)O` [Compd 1.058] was run?
Answer: < 1000 nM

Question: With `COc1cc(-c2cccc(-c3cccc(-c4cc(F)c(CN(C)C)c(OC)c4)c3C)c2C)cc(F)c1CN(C)C` [Compd 1.059] as the molecule, how does the IC50 read?
Answer: < 1000 nM

Question: `COc1cc(-c2cccc(-c3cccc(OCCCN4[C@H](C)CC[C@H]4C)c3C)c2C)cc2c1CNCC2` [Compd 1.060] was tested. Which IC50 did it give?
Answer: < 1000 nM

Question: For `Cc1c(OCCCN2[C@H](C)CC[C@H]2C)cccc1-c1cccc(-c2cc(F)c(CNCCCC(=O)O)c(F)c2)c1C` [Compd 1.061], which IC50 is on record?
Answer: < 1000 nM

Question: `COc1cc(-c2cccc(-c3cccc(-c4cc(F)c(CNCC(=O)O)c(OC)c4)c3C)c2C)cc(F)c1CNCC(=O)O` [Compd 1.062] was tested. Which IC50 did it give?
Answer: < 1000 nM

Question: With `COc1cc(-c2cccc(-c3cccc(-c4cc(F)c(CNCCCC(=O)O)c(OC)c4)c3C)c2C)cc(F)c1CNCCCC(=O)O` [Compd 1.063, 4,4′-(((3,3′″-difluoro-5,5′″-dimethoxy-2′,2″-dimethyl-[1,1′:3′,1″:3″,1′″-quaterphenyl]-4,4′″-diyl)bis(methylene))bis(azanediyl))dibutyric acid] as the molecule, how does the IC50 read?
Answer: < 1000 nM

Question: `Cc1c(OCCCN2[C@H](C)CC[C@H]2C)cccc1-c1cccc(-c2ccc3c(c2)CC(C(=O)O)NC3)c1C` (some centres unmarked) [Compd 1.064] was tested. Which IC50 did it give?
Answer: 1000 to 10000 nM

Question: `COc1cc(CNCCCC(=O)O)cc(-c2cccc(-c3cccc(OCCCN4[C@H](C)CC[C@H]4C)c3C)c2C)c1` [Compd 1.065] was tested. Which IC50 did it give?
Answer: 1000 to 10000 nM

Question: For `COc1cc(-c2cccc(-c3cccc(OCCCN4[C@H](C)CC[C@H]4C)c3C)c2C)ccc1CNCCCC(=O)O` [Compd 1.066], which IC50 is on record?
Answer: < 1000 nM

Question: Which IC50 does the source give for `COc1cc(-c2cccc(-c3cccc(OCCCN4[C@H](C)CC[C@H]4C)c3C)c2C)cc(F)c1CNCCCC(=O)O` [Compd 1.067] here?
Answer: < 1000 nM

Question: With `Cc1c(OCCCN2[C@H](C)CC[C@H]2C)cccc1-c1cccc(-c2ccc3c(c2)CC(C(=O)O)NC3)c1C` (some centres unmarked) [Compd 1.068] as the molecule, how does the IC50 read?
Answer: < 1000 nM

Question: Which IC50 does the source give for `Cc1c(OCCCN2[C@H](C)CC[C@H]2C)cccc1-c1cccc(-c2ccc3c(c2)CC(CO)NC3)c1C` (some centres unmarked) [Compd 1.069] here?
Answer: < 1000 nM

Question: Which IC50 does the source give for `Cc1c(OCCCN2CCC(F)CC2)cccc1-c1cccc(-c2ccc(CN3CCCC[C@H]3C(=O)O)cc2)c1C` [Compd 1.071] here?
Answer: 1000 to 10000 nM

Question: For `COC(=O)[C@@H]1CCCCN1Cc1ccc(-c2cccc(-c3cccc(OCCCN4CCC(F)CC4)c3C)c2C)cc1` [Compd 1.072], which IC50 is on record?
Answer: 1000 to 10000 nM

Question: Which IC50 does the source give for `COc1cc(-c2cccc(-c3cccc(OCCCN4[C@H](C)CC[C@H]4C)c3C)c2C)ccc1CN(C)C` [Compd 1.073] here?
Answer: < 1000 nM

Question: `Cc1c(OCCCN2[C@H](C)CC[C@H]2C)cccc1-c1cccc(-c2ccc(CN(C)C)c(OC(C)C)c2)c1C` [Compd 1.074] was tested. Which IC50 did it give?
Answer: < 1000 nM

Question: Which IC50 does the source give for `CCOc1cc(-c2cccc(-c3cccc(OCCCN4[C@H](C)CC[C@H]4C)c3C)c2C)ccc1CN(C)C` [Compd 1.075] here?
Answer: < 1000 nM

Question: With `C=Cc1c(-c2ccc3c(c2)CCNC3)cccc1-c1cccc(OCCCN2CCC2(C)C)c1C` [Compd 1.076, 6-(3′-(3-(2,2-dimethylazetidin-1-yl)propoxy)-2′-methyl-2-vinyl-[1,1′-biphenyl]-3-yl)-1,2,3,4-tetrahydroisoquinoline] as the molecule, how does the IC50 read?
Answer: < 1000 nM

Question: With `Cc1c(OCCCN2CCC(F)CC2)cccc1-c1cccc(-c2ccc(CN)cc2)c1C` [Compd 1.077] as the molecule, how does the IC50 read?
Answer: < 1000 nM

Question: For `COc1cc(-c2cccc(-c3cccc(OCCCN4CCC(F)CC4)c3C)c2C)cc(F)c1CN(C)C` [Compd 1.078], which IC50 is on record?
Answer: < 1000 nM
